Measured values published in PubChem BioAssay (NCI).
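Growth conditions: 96-well plates. Treatment: test compound, 48 hours, 5 concentrations. Analysis: linear interpolation between bracketing concentrations; unreached endpoints set to highest concentration. The concentration for 50% growth inhibition is given as GI50. TGI marks complete inhibition of growth.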

Columns and labels:
Assay in all cases: DTP human tumour cell line panel, 48 h
[1] = test system: SF-539 CNS
[2] = test system: SR leukemia
[3] = test system: HS 578T breast
[4] = test system: ACHN renal
[5] = test system: UO-31 renal
[6] = test system: TK-10 renal
[7] = test system: NCI/ADR-RES ovarian
[8] = test system: HCT-15 colon
[9] = test system: DU-145 prostate
[10] = test system: OVCAR-5 ovarian
[11] = test system: OVCAR-3 ovarian
[12] = test system: BT-549 breast
[13] = test system: SK-MEL-28 melanoma
[14] = test system: MDA-MB-435
[15] = test system: IGROV1 ovarian
[16] = test system: MDA-MB-231 breast
[17] = test system: CCRF-CEM leukemia
[18] = test system: UACC-257 melanoma
[19] = test system: COLO 205 colon
[20] = test system: SK-MEL-2 melanoma
[21] = test system: SF-268 CNS
[22] = test system: SK-OV-3 ovarian
[23] = test system: KM12 colon
[24] = test system: MOLT-4 leukemia
[25] = test system: OVCAR-4 ovarian
[26] = test system: HCC-2998 colon
[27] = test system: SNB-19 CNS
[28] = test system: NCI-H522 lung
[29] = test system: NCI-H460 lung
[30] = test system: HL-60(TB) leukemia
[31] = test system: HOP-62 NSCLC
[32] = test system: SF-295 CNS
[33] = test system: CAKI-1 renal
[34] = test system: OVCAR-8 ovarian
[35] = test system: MALME-3M melanoma
[36] = test system: UACC-62 melanoma
[37] = test system: SW-620 colon
[38] = test system: RXF 393 renal
[39] = test system: HT29 colon
[40] = test system: K-562 leukemia
[41] = test system: M14 melanoma
[42] = test system: SN12C renal
[43] = test system: A549 NSCLC
[44] = test system: HCT-116 colon
[45] = test system: NCI-H226 lung
[46] = test system: NCI-H23 lung
[47] = test system: T-47D breast
[48] = test system: LOX IMVI melanoma
[49] = test system: MCF7 breast
[50] = test system: RPMI-8226 leukemia
[51] = test system: HOP-92 NSCLC
[52] = test system: U251 CNS
[53] = test system: 786-0 renal
[54] = test system: SK-MEL-5 melanoma
[55] = test system: A498 renal
[56] = test system: SNB-75 CNS
[57] = test system: EKVX NSCLC
[58] = test system: PC-3 prostate

COc1ccc(C2=NN(C(=O)c3cc(OC)c(OC)c(OC)c3)C(c3ccc(C#N)cc3)C2)cc1OC (stereo not given)
GI50 [1]: 0.882 µM
GI50 [2]: 1.13 µM
TGI [2]: > 100 µM
GI50 [3]: 1.53 µM
TGI [3]: > 26 µM
GI50 [4]: 1.45 µM
TGI [4]: > 66.5 µM
GI50 [5]: 0.439 µM
TGI [5]: 17.4 µM
GI50 [6]: 3.65 µM
TGI [6]: > 45 µM
GI50 [7]: 0.603 µM
TGI [7]: 11.1 µM
GI50 [8]: 1.48 µM
TGI [8]: > 64.8 µM
GI50 [9]: 2.98 µM
TGI [9]: > 39 µM
GI50 [10]: 5.24 µM
TGI [10]: > 100 µM
GI50 [11]: 0.478 µM
TGI [11]: 2.35 µM
GI50 [12]: 2.98 µM
TGI [12]: > 33.1 µM
GI50 [13]: 1.3 µM
TGI [13]: > 55 µM
GI50 [14]: 0.334 µM
TGI [14]: 1.24 µM
GI50 [15]: 1.18 µM
TGI [15]: 18.9 µM
GI50 [16]: 2.86 µM
TGI [16]: > 45.6 µM
GI50 [17]: 3.03 µM
TGI [17]: > 100 µM
GI50 [18]: 6.4 µM
TGI [18]: > 53.2 µM
GI50 [19]: 1.47 µM
TGI [19]: 4.03 µM
GI50 [20]: 1.58 µM
TGI [20]: > 20.3 µM
GI50 [21]: 2.52 µM
TGI [21]: > 66.6 µM
GI50 [22]: 0.872 µM
TGI [22]: 8.32 µM
GI50 [23]: 1.16 µM
TGI [23]: > 27.3 µM
GI50 [24]: 4.27 µM
TGI [24]: > 100 µM
GI50 [25]: 3.41 µM
TGI [25]: > 65.1 µM
GI50 [26]: 2.16 µM
TGI [26]: 6.63 µM
GI50 [27]: 3.02 µM
TGI [27]: > 68.2 µM
GI50 [28]: 0.222 µM
TGI [28]: 1.24 µM
GI50 [29]: 2.01 µM
TGI [29]: > 100 µM
GI50 [30]: 1.85 µM
TGI [30]: 6.01 µM
GI50 [31]: 1.53 µM
TGI [31]: 36.9 µM
GI50 [32]: 0.351 µM
TGI [32]: 2.37 µM
GI50 [33]: 0.412 µM
TGI [33]: 7.15 µM
GI50 [34]: 3.26 µM
TGI [34]: > 42.7 µM
GI50 [35]: 14.6 µM
TGI [35]: > 78.9 µM
GI50 [36]: 0.737 µM
TGI [36]: > 53.1 µM
GI50 [37]: 1.26 µM
TGI [37]: > 100 µM
GI50 [38]: 0.541 µM
TGI [38]: 4.69 µM
GI50 [39]: 2.42 µM
TGI [39]: > 32.1 µM
GI50 [40]: 0.889 µM
TGI [40]: > 100 µM
GI50 [41]: 1.8 µM
TGI [41]: 10.4 µM
GI50 [42]: 4.47 µM
TGI [42]: > 100 µM
GI50 [43]: 2.32 µM
TGI [43]: > 100 µM
GI50 [44]: 1.63 µM
TGI [44]: > 44.2 µM
GI50 [45]: 2.84 µM
TGI [45]: > 55.3 µM
GI50 [46]: 3.07 µM
TGI [46]: > 74 µM
GI50 [47]: 3.64 µM
TGI [47]: 97.6 µM
GI50 [48]: 2.24 µM
TGI [48]: 16.3 µM
GI50 [49]: 0.512 µM
TGI [49]: > 88.9 µM
GI50 [50]: 3.54 µM
TGI [50]: > 100 µM
GI50 [51]: 0.113 µM
TGI [51]: 0.792 µM
GI50 [52]: 1.18 µM
TGI [52]: > 34.6 µM
GI50 [53]: 2.14 µM
TGI [53]: > 48.8 µM
GI50 [54]: 0.483 µM
TGI [54]: 6.67 µM
GI50 [55]: 0.374 µM
TGI [55]: 4.34 µM
GI50 [56]: 0.586 µM
TGI [56]: 19.9 µM
GI50 [57]: 4.59 µM
TGI [57]: > 100 µM
GI50 [58]: 1.94 µM
TGI [58]: > 52.3 µM
